Assay results as given in US12364674B2, “Compounds and combinations thereof for treating neurological and psychiatric conditions” (priority 2022, dated 2025).
Where a name gives a salt, the structure may show the parent alone. Read-outs that look alike come from different tables or passages of the source.

How the values were obtained:
[1] = Example 3: co-administration of paroxetine and the subject combination in healthy volunteers
Description: Co-administration of the SSRI paroxetine and the subject combination was studied in 29 healthy volunteers.

[2] = Example 2: pharmacokinetics of the subject combination in CYP2D6 poor metabolizers; conditions: 3 CYP2D6 poor metabolizers
Description: Approximately 7 to 10% of Caucasians and 3 to 8% of African Americans lack the capacity to metabolize CYP2D6 substrates and are classified as poor metabolizers.

[3] = Example 1: subject combination in subjects with moderate renal impairment vs matched controls; conditions: moderate renal impairment (GFR 30-60 mL/min)
[4] = Steady-state pharmacokinetics of dextromethorphan, bupropion and metabolites after administration of the subject combination; conditions: for changes in AUC and Cmax with dose (dose proportionality): steady state, co-administered with bupropion
[5] = Example 4: exposure to the 45 mg dextromethorphan hydrobromide/105 mg bupropion hydrochloride tablet in moderate renal impairment (FIG. 1); conditions: 8 days of twice daily dosing of the tablet
[6] = human, in vivo
[7] = human, in vivo; remark: listed apart in the source

## Fc1ccc([C@@H]2CCNC[C@H]2COc2ccc3c(c2)OCO3)cc1 [paroxetine]
[1]; human, in vivo
  increase of overall exposure of paroxetine when co-administered with the subject combination: 1.2 fold

## COc1ccc2c(c1)[C@]13CCCC[C@@H]1[C@H](C2)N(C)CC3 [dextromethorphan, morphinan, 3-methoxy-17-methyl-, (9α, 13α, 14α), hydrobromide monohydrate]
[2]
  increase in AUC0-12 compared to extensive metabolizers: ~3.4 fold
  increase in Cmax compared to extensive metabolizers: ~3 fold
[1]; 29 healthy volunteers, paroxetine with the subject combination
  change of overall exposure on co-administration of paroxetine: 2.5 fold
[3]
  reduction of clearance vs matched controls with normal renal function: 50%
[3]; 7 subjects vs 6 controls
  increase of exposure vs matched controls with normal renal function: approximately 2 fold
[4]; 8 days of administration of the subject combination, extensive metabolizers
  increase of mean elimination half-life compared to dextromethorphan given without bupropion: approximately 3 fold
[4]; varying doses of bupropion (75 to 150 mg)
  changes in AUC and Cmax with dose (dose proportionality): less than dose-proportional
[4]; varying doses of dextromethorphan (30 to 60 mg)
  changes in AUC and Cmax with dose (dose proportionality): greater than dose-proportional
[4]; subject combination
  mean elimination half-life: 22 h
[5]
  increase in AUC0-12 (GMR vs matched healthy subjects): 2.21 fold
  increase in Cmax (GMR vs matched healthy subjects): 2.10 fold

## CC(NC(C)(C)C)C(=O)c1cccc(Cl)c1.Cl (racemic) [bupropion, (±)-1-(3-chlorophenyl)-2-[(1,1-dimethylethyl)amino]-1-propanone hydrochloride]
[6]
  increase of exposure vs matched controls with normal renal function: approximately 2 fold
  reduction of clearance vs matched controls with normal renal function: 50%
[7]
  increase in AUC0-12 (GMR vs matched healthy subjects): 1.80 fold
  increase in Cmax (GMR vs matched healthy subjects): 1.87 fold
